Test results as given in patent US20250230193A1, “CYCLIC COMPOUND HAVING SELECTIVE KRAS INHIBITORY EFFECT ON HRAS AND NRAS” (CHUGAI SEIYAKU KABUSHIKI KAISHA, priority 2022, published 2025).
*1 amine or outer side, *2 acyl side, *3 side chain or, on linkers, in order; H or OH if unused. Where a SMILES comes first, the peptide text is derived from it. Bridges are numbered along the chain shown (N, C = ends). [ ]: non-standard residue; d: D form. The star is where a group is joined. hPhe(3,5-F2-4-CF3) = N[C@@H](CCc1cc(F)c(C(F)(F)F)c(F)c1)C(=O)O; hPhe(3-Cl-4-CF3) = N[C@@H](CCc1ccc(C(F)(F)F)c(Cl)c1)C(=O)O; NPrPhe(4-CF3) = CCCN[C@@H](Cc1ccc(C(F)(F)F)cc1)C(=O)O; NMeAbu(4,4,4-F3) = CN[C@@H](CC(F)(F)F)C(=O)O; X16 = O=C([C@@H](N[*:1])C1CC(F)(F)C1)[*:2]; NMeGly(cPent) = CN[C@H](C(=O)O)C1CCCC1; Ac4c(3,3-F2) = NC1(C(=O)O)CC(F)(F)C1; Nva(3-Et) = CCC(CC)[C@H](N)C(=O)O; Gly(N-propargyl) = C#CCNCC(=O)O; X15 = O=C(CN(CC(F)F)[*:1])[*:2]; NMeD = CN[C@@H](CC(=O)O)C(=O)O; Ac4c(3-oxa) = NC1(C(=O)O)COC1; NMeL = CN[C@@H](CC(C)C)C(=O)O; X51 = O=C(CN(CCF)[*:1])[*:2]; αMeS = C[C@](N)(CO)C(=O)O; Morpholide = C1CN(*)CCO1; NAllylGly = C=CCNCC(=O)O; Ac5c = NC1(C(=O)O)CCCC1; Sar = CNCC(=O)O; tBu = CC(C)(C)*; Allyl = C=CC*

Key:
[1] = target: GDP-bound NRAS wild-type protein (Homo sapiens, UniProt P01111); test: Binding to NRAS by surface plasmon resonance (SPR), Single Cycle Kinetics; settings: KD ratio NRAS/KRAS, SPR
GDP-bound NRAS wild-type protein, sequence (P01111 whole entry): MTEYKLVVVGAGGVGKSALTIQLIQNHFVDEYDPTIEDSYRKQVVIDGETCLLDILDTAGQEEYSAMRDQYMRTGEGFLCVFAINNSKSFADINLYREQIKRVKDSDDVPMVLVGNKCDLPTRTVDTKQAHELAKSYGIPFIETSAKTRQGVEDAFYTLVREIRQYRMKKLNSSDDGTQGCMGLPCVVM

[2] = target: GDP-bound HRAS wild-type protein (Homo sapiens, UniProt P01112); test: Binding to HRAS by surface plasmon resonance (SPR), Single Cycle Kinetics; settings: KD ratio HRAS/KRAS, SPR
GDP-bound HRAS wild-type protein, sequence (P01112 whole entry): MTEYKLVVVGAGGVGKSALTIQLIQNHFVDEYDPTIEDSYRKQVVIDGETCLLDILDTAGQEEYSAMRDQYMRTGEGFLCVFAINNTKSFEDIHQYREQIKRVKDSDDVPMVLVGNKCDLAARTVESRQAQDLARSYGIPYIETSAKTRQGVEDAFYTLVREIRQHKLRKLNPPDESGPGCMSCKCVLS

SMILES | NRAS/KRAS (ratio of KD value with respect to GDP-bound NRAS wild-type protein to KD value with respect to KRAS) [1] | HRAS/KRAS (ratio of KD value with respect to GDP-bound HRAS wild-type protein to KD value with respect to KRAS) [2]
C=CCOC[C@]1(C)NC(=O)[C@@H]2CCCN2C(=O)[C@H](CCc2cc(F)c(C(F)(F)F)c(F)c2)NC(=O)CN(C)C(=O)[C@H](Cc2ccc(C(F)(F)F)cc2)N(CCC)C(=O)CN(C)C(=O)CN(C)C(=O)[C@H]([C@@H](C)CC)NC(=O)[C@H](CC(C)C)N(C)C(=O)C[C@@H](C(=O)N(C)C)N(C)C(=O)[C@H](C2CCCC2)N(C)C1=O [PP0742] ([NMeL]I[Sar][Sar][NPrPhe(4-CF3)][Sar][hPhe(3,5-F2-4-CF3)]P[αMeS](Allyl)[NMeGly(cPent)][NMeD]-NMe2; lactam N-11) | B (a compound having 3 or more and less than 10 is denoted as B) | B (a compound having 3 or more and less than 10 is denoted as B)
CCCN1C(=O)CN(C)C(=O)CN(C)C(=O)[C@H]([C@@H](C)CC)NC(=O)[C@H](CC(C)C)N(C)C(=O)C[C@@H](C(=O)N(C)C)N(C)C(=O)[C@H](C2CCCC2)N(C)C(=O)[C@](C)(COC(C)(C)C)NC(=O)[C@@H]2CCCN2C(=O)[C@H](CCc2cc(F)c(C(F)(F)F)c(F)c2)NC(=O)CN(C)C(=O)[C@@H]1Cc1ccc(C(F)(F)F)cc1 [PP0743] ([NMeL]I[Sar][Sar][NPrPhe(4-CF3)][Sar][hPhe(3,5-F2-4-CF3)]P[αMeS](tBu)[NMeGly(cPent)][NMeD]-NMe2; lactam N-11) | B (a compound having 3 or more and less than 10 is denoted as B) | C (A compound having a KD ratio of 0.1 or more and less than 3 is denoted as C)
CCCN1C(=O)CN(C)C(=O)CN(C)C(=O)[C@H]([C@@H](C)CC)NC(=O)[C@H](CC(C)C)N(C)C(=O)C[C@@H](C(=O)N(C)C)N(C)C(=O)[C@H](C2CCCC2)N(C)C(=O)C2(COC2)NC(=O)[C@@H]2CCCN2C(=O)[C@H](CCc2cc(F)c(C(F)(F)F)c(F)c2)NC(=O)CN(C)C(=O)[C@@H]1Cc1ccc(C(F)(F)F)cc1 [PP0744] ([NMeL]I[Sar][Sar][NPrPhe(4-CF3)][Sar][hPhe(3,5-F2-4-CF3)]P[Ac4c(3-oxa)][NMeGly(cPent)][NMeD]-NMe2; lactam N-11) | B (a compound having 3 or more and less than 10 is denoted as B) | B (a compound having 3 or more and less than 10 is denoted as B)
CCCN1C(=O)CN(C)C(=O)CN(C)C(=O)[C@H]([C@@H](C)CC)NC(=O)[C@H](CC(C)C)N(C)C(=O)C[C@@H](C(=O)N(C)C)N(C)C(=O)[C@H](C2CCCC2)N(C)C(=O)C2(CC(F)(F)C2)NC(=O)[C@@H]2CCCN2C(=O)[C@H](CCc2cc(F)c(C(F)(F)F)c(F)c2)NC(=O)CN(C)C(=O)[C@@H]1Cc1ccc(C(F)(F)F)cc1 [PP0745] ([NMeL]I[Sar][Sar][NPrPhe(4-CF3)][Sar][hPhe(3,5-F2-4-CF3)]P[Ac4c(3,3-F2)][NMeGly(cPent)][NMeD]-NMe2; lactam N-11) | B (a compound having 3 or more and less than 10 is denoted as B) | C (A compound having a KD ratio of 0.1 or more and less than 3 is denoted as C)
CCCN1C(=O)CN(C)C(=O)CN(C)C(=O)[C@H]([C@@H](C)CC)NC(=O)[C@H](CC(C)C)N(C)C(=O)C[C@@H](C(=O)N(C)C)N(C)C(=O)[C@H](CC(F)(F)F)N(C)C(=O)C2(CCCC2)NC(=O)[C@@H]2CCCN2C(=O)[C@H](CCc2cc(F)c(C(F)(F)F)c(F)c2)NC(=O)CN(C)C(=O)[C@@H]1Cc1ccc(C(F)(F)F)cc1 [PP0746] ([NMeL]I[Sar][Sar][NPrPhe(4-CF3)][Sar][hPhe(3,5-F2-4-CF3)]P[Ac5c][NMeAbu(4,4,4-F3)][NMeD]-NMe2; lactam N-11) | B (a compound having 3 or more and less than 10 is denoted as B) | C (A compound having a KD ratio of 0.1 or more and less than 3 is denoted as C)
CCCN1C(=O)CN(C)C(=O)CN(C)C(=O)[C@H](C(CC)CC)NC(=O)[C@H](CC(C)C)N(C)C(=O)C[C@@H](C(=O)N(C)C)N(C)C(=O)[C@H](C2CCCC2)N(C)C(=O)C2(CCCC2)NC(=O)[C@@H]2CCCN2C(=O)[C@H](CCc2cc(F)c(C(F)(F)F)c(F)c2)NC(=O)CN(C)C(=O)[C@@H]1Cc1ccc(C(F)(F)F)cc1 [PP0747] ([NMeL][Nva(3-Et)][Sar][Sar][NPrPhe(4-CF3)][Sar][hPhe(3,5-F2-4-CF3)]P[Ac5c][NMeGly(cPent)][NMeD]-NMe2; lactam N-11) | B (a compound having 3 or more and less than 10 is denoted as B) | C (A compound having a KD ratio of 0.1 or more and less than 3 is denoted as C)
CCCN1C(=O)CN(C)C(=O)CN(C)C(=O)[C@H](C2CC(F)(F)C2)NC(=O)[C@H](CC(C)C)N(C)C(=O)C[C@@H](C(=O)N(C)C)N(C)C(=O)[C@H](C2CCCC2)N(C)C(=O)C2(CCCC2)NC(=O)[C@@H]2CCCN2C(=O)[C@H](CCc2cc(F)c(C(F)(F)F)c(F)c2)NC(=O)CN(C)C(=O)[C@@H]1Cc1ccc(C(F)(F)F)cc1 [PP0748] ([NMeL][X16][Sar][Sar][NPrPhe(4-CF3)][Sar][hPhe(3,5-F2-4-CF3)]P[Ac5c][NMeGly(cPent)][NMeD]-NMe2; lactam N-11) | B (a compound having 3 or more and less than 10 is denoted as B) | B (a compound having 3 or more and less than 10 is denoted as B)
C=CCN1CC(=O)N(C)CC(=O)N(CCC)[C@@H](Cc2ccc(C(F)(F)F)cc2)C(=O)N(C)CC(=O)N[C@@H](CCc2ccc(C(F)(F)F)c(Cl)c2)C(=O)N2CCC[C@H]2C(=O)NC2(CCCC2)C(=O)N(C)[C@@H](C2CCCC2)C(=O)N(C)[C@H](C(=O)N2CCOCC2)CC(=O)N(C)[C@@H](CC(C)C)C(=O)N[C@@H]([C@@H](C)CC)C1=O [PP0749] ([NMeL]I[NAllylGly][Sar][NPrPhe(4-CF3)][Sar][hPhe(3-Cl-4-CF3)]P[Ac5c][NMeGly(cPent)][NMeD]-Morpholide; lactam N-11) | B (a compound having 3 or more and less than 10 is denoted as B) | C (A compound having a KD ratio of 0.1 or more and less than 3 is denoted as C)
C#CCN1CC(=O)N(C)CC(=O)N(CCC)[C@@H](Cc2ccc(C(F)(F)F)cc2)C(=O)N(C)CC(=O)N[C@@H](CCc2ccc(C(F)(F)F)c(Cl)c2)C(=O)N2CCC[C@H]2C(=O)NC2(CCCC2)C(=O)N(C)[C@@H](C2CCCC2)C(=O)N(C)[C@H](C(=O)N2CCOCC2)CC(=O)N(C)[C@@H](CC(C)C)C(=O)N[C@@H]([C@@H](C)CC)C1=O [PP0750] ([NMeL]I[Gly(N-propargyl)][Sar][NPrPhe(4-CF3)][Sar][hPhe(3-Cl-4-CF3)]P[Ac5c][NMeGly(cPent)][NMeD]-Morpholide; lactam N-11) | B (a compound having 3 or more and less than 10 is denoted as B) | C (A compound having a KD ratio of 0.1 or more and less than 3 is denoted as C)
CCCN1C(=O)CN(C)C(=O)CN(CCF)C(=O)[C@H]([C@@H](C)CC)NC(=O)[C@H](CC(C)C)N(C)C(=O)C[C@@H](C(=O)N2CCOCC2)N(C)C(=O)[C@H](C2CCCC2)N(C)C(=O)C2(CCCC2)NC(=O)[C@@H]2CCCN2C(=O)[C@H](CCc2ccc(C(F)(F)F)c(Cl)c2)NC(=O)CN(C)C(=O)[C@@H]1Cc1ccc(C(F)(F)F)cc1 [PP0751] ([NMeL]I[X51][Sar][NPrPhe(4-CF3)][Sar][hPhe(3-Cl-4-CF3)]P[Ac5c][NMeGly(cPent)][NMeD]-Morpholide; lactam N-11) | B (a compound having 3 or more and less than 10 is denoted as B) | C (A compound having a KD ratio of 0.1 or more and less than 3 is denoted as C)
CCCN1C(=O)CN(C)C(=O)CN(CC(F)F)C(=O)[C@H]([C@@H](C)CC)NC(=O)[C@H](CC(C)C)N(C)C(=O)C[C@@H](C(=O)N2CCOCC2)N(C)C(=O)[C@H](C2CCCC2)N(C)C(=O)C2(CCCC2)NC(=O)[C@@H]2CCCN2C(=O)[C@H](CCc2ccc(C(F)(F)F)c(Cl)c2)NC(=O)CN(C)C(=O)[C@@H]1Cc1ccc(C(F)(F)F)cc1 [PP0752] ([NMeL]I[X15][Sar][NPrPhe(4-CF3)][Sar][hPhe(3-Cl-4-CF3)]P[Ac5c][NMeGly(cPent)][NMeD]-Morpholide; lactam N-11) | B (a compound having 3 or more and less than 10 is denoted as B) | B (a compound having 3 or more and less than 10 is denoted as B)
CCCN1C(=O)CN(C)C(=O)CN(C)C(=O)[C@H]([C@@H](C)CC)NC(=O)[C@H](CC(C)C)N(C)C(=O)C[C@@H](C(=O)N2CCOCC2)N(C)C(=O)[C@H](C2CCCC2)N(C)C(=O)C2(CCCC2)NC(=O)[C@@H]2CCCN2C(=O)[C@H](CCc2cc(F)c(C(F)(F)F)c(F)c2)NC(=O)CN(C)C(=O)[C@@H]1Cc1ccc(C(F)(F)F)cc1 [PP0753] ([NMeL]I[Sar][Sar][NPrPhe(4-CF3)][Sar][hPhe(3,5-F2-4-CF3)]P[Ac5c][NMeGly(cPent)][NMeD]-Morpholide; lactam N-11) | B (a compound having 3 or more and less than 10 is denoted as B) | C (A compound having a KD ratio of 0.1 or more and less than 3 is denoted as C)
